The IC50 is the concentration at which inhibition is half-maximal.

Assay [1] has as its system rat hepatic microsomal PTPases. The conditions noted are these: PTPase activity, compound at 50 μM.
The target of the next assay is T1, Human recombinant PTP1B (Homo sapiens, UniProt P18031).
T1 construct: made in house
T1 sequence (P18031 1-435): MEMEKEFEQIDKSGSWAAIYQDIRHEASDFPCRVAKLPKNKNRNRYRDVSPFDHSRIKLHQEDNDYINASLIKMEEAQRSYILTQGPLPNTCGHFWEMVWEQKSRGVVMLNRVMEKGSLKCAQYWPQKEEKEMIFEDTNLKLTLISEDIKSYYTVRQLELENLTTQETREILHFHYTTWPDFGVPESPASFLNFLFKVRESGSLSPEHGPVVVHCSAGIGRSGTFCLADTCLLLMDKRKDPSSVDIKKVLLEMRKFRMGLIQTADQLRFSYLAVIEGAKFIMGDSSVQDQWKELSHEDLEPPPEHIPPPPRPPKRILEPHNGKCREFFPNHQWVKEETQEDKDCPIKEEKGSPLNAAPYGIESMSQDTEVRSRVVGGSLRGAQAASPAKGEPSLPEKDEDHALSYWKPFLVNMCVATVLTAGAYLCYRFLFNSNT
Format: biochemical. The conditions noted are these: read-out: IC50.

In the case of `CC(C)(Oc1c(Br)cc(-c2c3ccccc3c(Br)c3sc4ccccc4c23)cc1Br)C(=O)O` [Example 178, 2-[2,6-Dibromo-4-(6-bromo-benzo[b]naphtho[2,3-d]thiophen-11-yl)-phenoxy]-2-methyl-propionic acid], the “% Change from Control” value in assay [1] is -42.41%. Further, the IC50 on Human recombinant PTP1B came to 480 nM.

For `Oc1c(Br)cc(-c2c3ccccc3c(Sc3ccccc3)c3sc4ccccc4c23)cc1Br` [Example 64, 2,6-Dibromo-4-(6-phenylsulfanyl-benzo[b]naphtho[2,3-d]thiophen-11-yl)-pheno], the “% Change from Control” value in assay [1] was -15.90%. In addition, the IC50 on Human recombinant PTP1B was 347 nM.

Regarding `C[C@H](Oc1cc(-c2c3ccccc3c(Br)c3sc4ccccc4c23)ccc1Br)C(=O)O` [Example 143, (S)-2-[2-Bromo-5-(6-bromo-benzo[b]naphtho[2,3-d]thiophen-11-yl)-phenoxyl]-propionic acid], the “% Change from Control” value in assay [1] is listed as -76.98%. Besides, the IC50 on Human recombinant PTP1B is 1170 nM.

On to `O=C(O)[C@H](Oc1c(Br)cc(-c2c3ccccc3c(Br)c3sc4ccccc4c23)cc1Br)c1ccccc1` [Example 142, (R)-[2,6-Dibromo-4-(6-bromo-benzo[b]naphtho[2,3-d]thiophen-11-yl)-phenoxy]-phenyl-acetic acid], for which, in assay [1], the “% Change from Control” value is -104.68%. For the same molecule, the IC50 on Human recombinant PTP1B was determined as 103 nM.

As to `CC(C)c1cc(-c2c3ccccc3c(Br)c3sc4ccccc4c23)cc(C(C)C)c1O` [Example 40, 4-(6-Bromo-benzo[b]naphtho[2,3-d]thiophen-11-yl)-2,6-diisopropyl-phenol], the “% Change from Control” value in assay [1] is reported as -1.40%. Also, the IC50 on Human recombinant PTP1B came to 1100 nM.

For `N#Cc1cc(-c2c3ccccc3cc3sc4ccccc4c23)cc(C#N)c1OCC(=O)O` [Example 81, [(4-Benzo[b]naphtho[2,3-d]thiophen-11-yl)-2,6-dicyano-phenoxy]-acetic acid], the “% Change from Control” value in assay [1] was -47.69%. Besides, at Human recombinant PTP1B, the IC50 worked out at 1990 nM.

On to `O=C(O)[C@@H](CCN1C(=O)c2ccccc2C1=O)Oc1ccc(-c2c3ccccc3cc3sc4ccccc4c23)cc1` [Example 148], for which, in assay [1], the “% Change from Control” value is -82.62%. Further, the IC50 at Human recombinant PTP1B was 1230 nM.

Consider `Oc1c(Br)cc(-c2c3ccccc3c(I)c3sc4ccccc4c23)cc1Br` [Example 59, 2,6-Dibromo-4-(6-iodo-benzo[b]naphtho[2,3-d]thiophen-11-yl)-phenol], for which the “% Change from Control” value in assay [1] is reported as -35.46%. On Human recombinant PTP1B, the IC50 came out at 612 nM.

On to `N#C[C@@H](Cc1ccccc1)Oc1c(Br)cc(-c2c3ccccc3c(Br)c3sc4ccccc4c23)cc1Br` [Example 170, (R)-2-[2,6-Dibromo-4-(6-bromo-benzo[b]naphtho[2,3-d]thiophen-11-yl)-phenoxy]-3-phenyl-propionitrile], for which the “% Change from Control” value in assay [1] was -18.79%. Besides, the IC50 on Human recombinant PTP1B was 607 nM.

For `O=P(O)(O)COc1c(Br)cc(-c2c3ccccc3c(Br)c3sc4ccccc4c23)cc1Br` [Example 162, [2,6-Dibromo-4-(6-bromo-benzo[b]naphtho[2,3-d]thiophen-11-yl)-phenoxymethyl]-phosphonic acid], in assay [1], the “% Change from Control” value is recorded as -60.67%. Further, at Human recombinant PTP1B, the IC50 turned out to be 145 nM.

As to `Brc1cc(-c2c3ccccc3c(Br)c3sc4ccccc4c23)cc(Br)c1OCc1nnn[nH]1` [Example 171, 5-[2,6-Dibromo-4-(6-bromo-benzo[b]naphtho[2,3-d]thiophen-11-yl)-phenoxymethyl]-1 H-tetrazole], the “% Change from Control” value in assay [1] is -71.04%. In addition, the IC50 on Human recombinant PTP1B was found to be 302 nM.

For the molecule `Oc1c(Br)cc(-c2c3ccccc3c(Cl)c3sc4ccccc4c23)cc1Br` [Example 60, 2,6-Dibromo-4-(6-chloro-benzo[b]naphtho[2,3-d]thiophen-11-yl)-phenol], the “% Change from Control” value in assay [1] is given as -25.07%. In addition, the IC50 on Human recombinant PTP1B is 129 nM.

Regarding `N#Cc1c2ccccc2c(-c2cc(Br)c(O)c(Br)c2)c2c1sc1ccccc12` [Example 58, 11-(3,5-Dibromo-4-hydroxy-phenyl)-benzo[b]naphtho[2,3-d]thiophene-6-carbonitrile], in assay [1], the “% Change from Control” value is recorded as -43.32%. Also, on Human recombinant PTP1B, the half-maximal inhibitory concentration (IC50) is 1010 nM.

Turning to `N#CCCNC(=O)[C@@H](Cc1ccccc1)Oc1c(Br)cc(-c2c3ccccc3c(Br)c3sc4ccccc4c23)cc1Br` [Example 168], in assay [1], the “% Change from Control” value is on record as -17.85%. Also, the IC50 on Human recombinant PTP1B came out at 994 nM.

Regarding `COc1c(Br)cc(-c2c3ccccc3c(Br)c3sc4ccccc4c23)cc1O[C@H](Cc1ccccc1)C(=O)O` [Example 196, (R)-2-[3-Bromo-5-(6-bromo-benzo[b]naphtho[2,3-d]thiophen-11-yl)-2-methoxy-phenoxy]-3-phenyl-propionic acid], in assay [1], the “% Change from Control” value is listed as -80.08%. On Human recombinant PTP1B, the IC50 amounted to 174 nM.

Consider `C[C@H](CC(=O)O)Oc1c(Br)cc(-c2c3ccccc3c(Br)c3sc4ccccc4c23)cc1Br` [Example 180], for which the “% Change from Control” value in assay [1] was -50.64%. On Human recombinant PTP1B, the IC50 worked out at 384 nM.

Consider `Oc1cc(-c2c3ccccc3c(Br)c3sc4ccccc4c23)ccc1Br` [Example 68, 2-Bromo-5-(6-bromo-benzo[b]naphtho[2,3-d]thiophen-11-yl)-phenol], for which, in assay [1], the “% Change from Control” value is listed as -26.32%. Also, on Human recombinant PTP1B, the 50% inhibitory concentration (IC50) came to 1020 nM.

Regarding `CN(C)CCSc1c2ccccc2c(-c2cc(Br)c(O[C@H](Cc3ccccc3)C(=O)O)c(Br)c2)c2c1sc1ccccc12` [Example 133, (R)-2-{2,6-Dibromo-4-[6-(2-dimethylamino-ethylsulfanyl)-benzo[b]naphtho[2,3-d]thiophen-11-yl]-phenoxy}-3-phenyl-propionic acid], the “% Change from Control” value in assay [1] is on record as -27.89%. The IC50 on Human recombinant PTP1B was determined as 506 nM.

In the case of `O=C(O)[C@@H](CCN1C(=O)c2ccccc2C1=O)Oc1ccc(-c2c3ccccc3c(Br)c3sc4ccccc4c23)cc1` [Example 150], in assay [1], the “% Change from Control” value is -92.46%. Moreover, the IC50 at Human recombinant PTP1B was found to be 207 nM.

Turning to `Oc1ccc(-c2c3ccccc3c(Br)c3sc4ccccc4c23)cc1O` [Example 43, 4-(6-bromo-benzo[b]naphtho[2,3-d]thiophen-11-yl)-benzene-1,2-diol], the “% Change from Control” value in assay [1] is reported as -14.62%. The 50% inhibitory concentration (IC50) on Human recombinant PTP1B was determined as 189 nM.

As to `Cc1c2ccccc2c(-c2cc(Br)c(O)c(Br)c2)c2c1sc1ccccc12` [Example 62, 2,6-Dibromo-4-(6-methyl-benzo[b]naphtho[2,3-d]thiophen-11-yl)-phenol], the “% Change from Control” value in assay [1] is -40.14%. At Human recombinant PTP1B, the IC50 came to 654 nM.

Regarding `N#Cc1c2ccccc2c(-c2ccc(O[C@H](Cc3ccccc3)C(=O)O)cc2)c2c1sc1ccccc12` [Example 116, (R)-2-[4-(6-Cyano-benzo[b]naphtho[2,3-d]thiophen-11-yl)-phenoxy]-3-phenyl-propionic acid], in assay [1], the “% Change from Control” value is reported as -61.89%. The IC50 at Human recombinant PTP1B came to 765 nM.

Consider `COc1c(O)cc(-c2c3ccccc3c(Br)c3sc4ccccc4c23)cc1Br` [Example 195, 3-Bromo-5-(6-bromo-benzo[b]naphtho[2,3-d]thiophen-11-yl)-2-methoxy-phenol], for which the “% Change from Control” value in assay [1] is on record as -29.34%. Besides, the IC50 on Human recombinant PTP1B came out at 889 nM.

Turning to `Oc1cccc(-c2c3ccccc3c(Br)c3sc4ccccc4c23)c1` [Example 42, 3-(6-Bromo-benzo[b]naphtho[2,3-d]thiophen-11-yl)-phenol], the “% Change from Control” value in assay [1] is listed as -21.28%. Also, the IC50 at Human recombinant PTP1B stood at 1500 nM.

For the molecule `N#Cc1cc(-c2c3ccccc3cc3sc4ccccc4c23)ccc1OCC(=O)O` [Example 82, [(4-benzo[b]naphtho[2,3-d]thiophen-11-yl)-2-cyano-phenoxy]-acetic acid], the “% Change from Control” value in assay [1] is given as -39.80%. In addition, at Human recombinant PTP1B, the IC50 turned out to be 2000 nM.

In the case of `C[C@@H](Oc1cc(-c2c3ccccc3c(Br)c3sc4ccccc4c23)ccc1Br)C(=O)O` [Example 144, (R)-2-[2-bromo-5-(6-Bromo-benzo[b]naphtho[2,3-d]thiophen-11-yl)-phenoxyl]-propionic acid], the “% Change from Control” value in assay [1] was -85.24%. Further, the IC50 on Human recombinant PTP1B was found to be 1130 nM.
